Assay results reported in paper PMC3573846 (International journal of pharmaceutics, 2012).

Legend:
[1] = target: P-gp (MDR1), MDCKII-MDR1 transfected cells (Homo sapiens, UniProt P08183); assay: Cellular accumulation of pazopanib in MDCKII-MDR1 vs WT cells; assay type: in vitro ADME; details: 0.1 μM pazopanib, 60 min, no inhibitor
[2] = target: T1, Bcrp1, MDCKII-Bcrp1 transfected cells (Mus musculus, UniProt Q7TMS5); assay: Cellular accumulation of pazopanib in MDCKII-Bcrp1 vs WT cells; assay type: in vitro ADME, murine; details: 0.1 μM pazopanib, 60 min, no inhibitor
T1 sequence (Q7TMS5 1-657): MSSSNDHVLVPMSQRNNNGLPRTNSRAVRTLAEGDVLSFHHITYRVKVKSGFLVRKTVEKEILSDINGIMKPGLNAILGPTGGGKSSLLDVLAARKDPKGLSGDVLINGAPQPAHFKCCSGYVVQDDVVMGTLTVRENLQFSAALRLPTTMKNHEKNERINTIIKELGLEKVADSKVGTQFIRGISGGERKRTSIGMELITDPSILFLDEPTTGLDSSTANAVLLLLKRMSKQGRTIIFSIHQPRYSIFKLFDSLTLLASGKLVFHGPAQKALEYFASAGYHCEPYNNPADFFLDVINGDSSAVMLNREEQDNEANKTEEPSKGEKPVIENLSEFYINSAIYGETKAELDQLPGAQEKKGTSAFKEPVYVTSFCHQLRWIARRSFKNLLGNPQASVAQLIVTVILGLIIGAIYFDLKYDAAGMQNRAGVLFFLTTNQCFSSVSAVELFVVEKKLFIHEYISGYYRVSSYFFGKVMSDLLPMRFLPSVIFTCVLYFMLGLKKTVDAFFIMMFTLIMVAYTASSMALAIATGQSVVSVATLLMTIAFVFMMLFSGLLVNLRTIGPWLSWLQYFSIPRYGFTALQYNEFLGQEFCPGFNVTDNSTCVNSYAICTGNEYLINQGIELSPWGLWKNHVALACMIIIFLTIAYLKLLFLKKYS

[3] = Bi-directional transport across MDCK-WT monolayers; assay type: in vitro ADME, canine; details: dog
P-gp (MDR1) = P-gp (MDR1) (Homo sapiens, UniProt P08183); assay: Bi-directional transport across MDCK-MDR1 monolayers; assay type: in vitro ADME; details: dog
[4] = target: P-gp (MDR1), MDCK-MDR1 cell monolayers (Homo sapiens, UniProt P08183); assay: as above; assay type: in vitro ADME
Bcrp1 = target: T2, Bcrp1 (Mus musculus, UniProt Q7TMS5); assay: Bi-directional transport across MDCK-Bcrp1 monolayers; assay type: in vitro ADME, murine; details: mouse, Efflux ratio, MDCK-Bcrp1, 5 μM pazopanib, no inhibitor
T2 sequence (Q7TMS5 1-657): T1 sequence (Q7TMS5 1-657)

Bcrp1 (murine) = target: T3, Bcrp1 (murine) (Mus musculus, UniProt Q7TMS5); assay: as above; assay type: in vitro ADME; details: dog
T3 sequence (Q7TMS5 1-657): T1 sequence (Q7TMS5 1-657)

[5] = target: T4, Bcrp1, MDCK-Bcrp1 cell monolayers (Mus musculus, UniProt Q7TMS5); assay: as above; assay type: in vitro ADME, murine
T4 sequence (Q7TMS5 1-657): T1 sequence (Q7TMS5 1-657)

in vivo = details: male, mouse, 5 mg/kg
[6] = Brain accumulation and plasma pharmacokinetics of pazopanib in FVB mice; details: for half-life: 5 mg/kg
P-gp at BBB = details: mouse, in vivo; cited from earlier work
[7] = test system: P-gp and Bcrp1 at the mouse BBB; details: zosuquidar 25 mg/kg or Ko143 10 mg/kg i.v. 30 min prior to pazopanib 5 mg/kg i.v.; 60 min post dose
[8] = in vitro MDCKII cell monolayers
[9] = brain, pazopanib 5 mg/kg i.v. + elacridar (GF120918) 10 mg/kg
[10] = brain, pazopanib alone, 5 mg/kg i.v. bolus
[11] = plasma, pazopanib 5 mg/kg i.v. + elacridar (GF120918) 10 mg/kg
[12] = plasma, pazopanib alone, 5 mg/kg i.v. bolus

Sequence of P-gp (MDR1) (P08183 whole entry): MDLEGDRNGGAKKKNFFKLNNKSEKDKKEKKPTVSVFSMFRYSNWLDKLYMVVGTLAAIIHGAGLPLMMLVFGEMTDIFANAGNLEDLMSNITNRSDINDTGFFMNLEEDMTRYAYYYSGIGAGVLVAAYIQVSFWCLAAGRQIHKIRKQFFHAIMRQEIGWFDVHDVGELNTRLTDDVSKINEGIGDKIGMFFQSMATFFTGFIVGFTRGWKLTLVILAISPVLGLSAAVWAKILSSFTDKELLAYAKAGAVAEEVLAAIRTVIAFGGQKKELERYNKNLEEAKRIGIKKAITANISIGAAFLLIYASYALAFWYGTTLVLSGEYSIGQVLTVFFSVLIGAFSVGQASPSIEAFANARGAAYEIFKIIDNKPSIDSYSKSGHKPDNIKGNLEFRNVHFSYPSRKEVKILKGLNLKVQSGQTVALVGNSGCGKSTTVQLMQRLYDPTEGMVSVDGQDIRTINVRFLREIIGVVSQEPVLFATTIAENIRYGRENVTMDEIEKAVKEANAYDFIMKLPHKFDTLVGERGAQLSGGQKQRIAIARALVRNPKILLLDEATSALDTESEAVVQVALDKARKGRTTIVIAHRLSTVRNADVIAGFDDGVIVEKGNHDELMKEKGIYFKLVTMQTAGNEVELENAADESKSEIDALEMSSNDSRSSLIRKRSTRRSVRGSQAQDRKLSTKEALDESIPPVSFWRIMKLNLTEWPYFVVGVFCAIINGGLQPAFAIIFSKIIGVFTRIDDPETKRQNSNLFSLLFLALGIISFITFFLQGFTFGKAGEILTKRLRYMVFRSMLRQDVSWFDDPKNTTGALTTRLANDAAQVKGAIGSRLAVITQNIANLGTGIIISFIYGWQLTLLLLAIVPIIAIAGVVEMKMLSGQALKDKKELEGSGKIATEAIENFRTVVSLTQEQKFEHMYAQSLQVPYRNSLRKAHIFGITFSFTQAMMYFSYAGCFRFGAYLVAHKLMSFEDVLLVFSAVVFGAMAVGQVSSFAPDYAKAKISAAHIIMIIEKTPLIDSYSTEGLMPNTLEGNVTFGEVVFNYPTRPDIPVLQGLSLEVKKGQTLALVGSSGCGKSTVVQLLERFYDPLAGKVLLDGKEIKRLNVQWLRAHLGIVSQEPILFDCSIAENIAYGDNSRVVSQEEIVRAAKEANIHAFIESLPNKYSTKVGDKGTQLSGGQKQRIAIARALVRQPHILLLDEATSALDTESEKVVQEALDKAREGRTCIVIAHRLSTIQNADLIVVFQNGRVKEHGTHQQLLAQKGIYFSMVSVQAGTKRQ
Sequence of P-gp (MDR1), MDCK-MDR1 cell monolayers (P08183 whole entry): as above
Sequence of P-gp (MDR1), MDCKII-MDR1 transfected cells (P08183 whole entry): as above

Cc1ccc(Nc2nccc(N(C)c3ccc4c(C)n(C)nc4c3)n2)cc1S(N)(=O)=O [Pazopanib]
Pazopanib accumulation in MDR1 overexpressing cells relative to WT cells [1]: 60 % of WT cells
Pazopanib accumulation in Bcrp1 overexpressing cells relative to WT cells [2]: approximately 5 % of WT cells
Papp A→B at 240 min, 5 μM [3]: 2.92 ± 0.33 ×10⁻⁶ cm/s
Papp B→A at 240 min, 5 μM [3]: 3.1 ± 0.22 ×10⁻⁶ cm/s
efflux ratio at 240 min, 5 μM [3]: 1.06
Papp A→B at 240 min, 5 μM (P-gp (MDR1); MDCK-MDR1): 3.73 ± 0.17 ×10⁻⁶ cm/s
Papp B→A at 240 min, 5 μM (P-gp (MDR1); MDCK-MDR1): 6.3 ± 0.56 ×10⁻⁶ cm/s
efflux ratio at 240 min, 5 μM (P-gp (MDR1); MDCK-MDR1, Efflux ratio, MDCK-MDR1, 5 μM pazopanib, no inhibitor): 1.7
Efflux ratio ([4]; MDCK-MDR1, 5 μM pazopanib + 1 μM zosuquidar (LY)): 1.07
Substrate classification for P-gp [4, 8]: moderate substrate
efflux ratio at 240 min, 5 μM (Bcrp1): 47
Papp A→B at 240 min, 5 μM (Bcrp1 (murine)): 0.2 ± 0.04 ×10⁻⁶ cm/s
Papp B→A at 240 min, 5 μM (Bcrp1 (murine)): 9.71 ± 0.09 ×10⁻⁶ cm/s
efflux ratio at 240 min, 5 μM (Bcrp1 (murine); with Ko143 200 nM, Efflux ratio, MDCK-Bcrp1, 5 μM pazopanib + 200 nM Ko143): 1.35
Efflux ratio ([5]; MDCK-Bcrp1, 5 μM pazopanib, no inhibitor): 47.1
Substrate classification for Bcrp1 [5, 8]: high affinity substrate
k el (in vivo; FVB wild type, brain, iv): 0.000103 s⁻¹
Kp (in vivo; FVB wild type, brain/plasma, iv): 0.015
Vd (in vivo; FVB wild type, plasma, iv): 0.286 L/kg
clearance (in vivo; FVB wild type, plasma, iv): 2.38 mL/min/kg
k el (in vivo; FVB wild type, plasma, iv): 0.000139 s⁻¹
concentration at 15 min (in vivo; FVB, brain, intravenous): 293 ± 52 ng/g
concentration at 30 min (in vivo; FVB, brain, intravenous): 157 ± 2 ng/g
concentration at 60 min (in vivo; FVB, brain, intravenous): 95 ± 11 ng/g
half-life (in vivo; FVB, brain, iv): 1.9 h
Kp at 30 min (in vivo; FVB, brain/plasma, intravenous): 0.0113 ± 0.005
Kp at 60 min (in vivo; FVB, brain/plasma, intravenous): 0.009 ± 0.001
half-life (in vivo; FVB, plasma, iv): 1.4 h
AUC (0 → tlast) [6, 9]: 0.042 ± 0.003 mg·min/mL
λz [6, 9]: 0.25 h⁻¹
AUC (0 → tlast) [6, 10]: 0.020 ± 0.001 mg·min/mL
half-life [6, 10]: 1.89 h
AUC (0 → tlast) [6, 11]: 1.029 ± 0.071 mg·min/mL
Volume of distribution [6, 11]: 0.39822 L/kg
clearance [6, 11]: 2.49 mL/min/kg
λz ([6]; plasma, pazopanib 5 mg/kg i.v. + elacridar (GF120918) 10 mg/kg i.v. 30 min prior): 0.38 h⁻¹
AUC (0 → tlast) [6, 12]: 1.356 ± 0.043 mg·min/mL
half-life [6, 12]: 1.39 h

O[C@@H](COc1cccc2ncccc12)CN1CCN([C@@H]2c3ccccc3[C@@H]3[C@H](c4ccccc42)C3(F)F)CC1 [zosuquidar]
Enhanced brain penetration of paclitaxel upon co-administration (P-gp at BBB): ~ 5.6 fold
Effect on pazopanib brain concentration [7]: did not significantly alter

COc1ccc2c3c([nH]c2c1)[C@H](CC(C)C)N1C(=O)[C@H](CCC(=O)OC(C)(C)C)NC(=O)[C@@H]1C3 [Ko143]
Effect on pazopanib brain concentration [7]: did not significantly alter
